Measured values published in paper PMC8119466, “A screen of FDA-approved drugs identifies inhibitors of protein tyrosine phosphatase 4A3 (PTP4A3 or PRL-3)” (Scientific Reports, 2021).
Where a name gives a salt, the structure may show the parent alone. Read-outs that look alike come from different tables or passages of the source.

Key:
Type in all cases: biochemical
[1] = target: T1, recombinant PRL-1 (Homo sapiens, UniProt Q93096); assay: In vitro phosphatase assay (DiFMUP hydrolysis), PRL-1; conditions: for IC50: DiFMUP at KM, read-out: Calculated IC50, PRL-1 phosphatase activity
T1 construct: 6xHis (N, cleaved yes); made in house; host or cells: E. coli One Shot BL21 Star
T1 sequence (Q93096 1-173): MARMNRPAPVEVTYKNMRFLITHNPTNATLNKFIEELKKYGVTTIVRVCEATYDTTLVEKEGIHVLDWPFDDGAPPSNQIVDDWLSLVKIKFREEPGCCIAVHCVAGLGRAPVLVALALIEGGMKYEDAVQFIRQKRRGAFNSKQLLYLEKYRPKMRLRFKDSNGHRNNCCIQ

[2] = target: T2, recombinant PRL-2 (Homo sapiens, UniProt Q12974); assay: In vitro phosphatase assay (DiFMUP hydrolysis), PRL-2; conditions: for IC50: DiFMUP at KM, read-out: Calculated IC50, PRL-2 phosphatase activity;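 for all read-outs here: PRL-2 activity read as DiFMUP hydrolysis after 20 min at room temperature with drug, enzyme first pre-reduced at 4 °C for 20 min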
T2 construct: 6xHis (N, cleaved yes); made in house; host or cells: E. coli One Shot BL21 Star
T2 sequence (Q12974 1-167): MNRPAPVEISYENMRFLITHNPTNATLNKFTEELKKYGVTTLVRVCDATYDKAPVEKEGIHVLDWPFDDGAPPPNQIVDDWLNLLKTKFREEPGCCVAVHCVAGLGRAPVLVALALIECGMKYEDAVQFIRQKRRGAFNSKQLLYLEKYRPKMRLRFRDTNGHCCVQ

[3] = target: T3, recombinant PRL-3 (Homo sapiens, UniProt O75365); assay: In vitro phosphatase assay (DiFMUP hydrolysis), PRL-3; conditions: for IC50: DiFMUP at KM, read-out: Calculated IC50, PRL-3 phosphatase activity
T3 construct: 6xHis (N, cleaved yes); made in house; host or cells: E. coli One Shot BL21 Star

[4] = FDA-approved drug screen, compared to DMSO
[5] = FDA-approved drug screen, compared to DMSO, listed as Eltrombopag

T3 sequence (O75365 whole entry): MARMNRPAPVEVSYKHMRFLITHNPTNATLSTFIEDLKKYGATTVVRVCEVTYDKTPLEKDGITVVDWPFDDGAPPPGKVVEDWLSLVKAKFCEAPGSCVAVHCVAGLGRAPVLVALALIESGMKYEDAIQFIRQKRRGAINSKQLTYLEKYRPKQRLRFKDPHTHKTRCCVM

Row | Compound | % Phosphatase Activity (compared to DMSO) PRL-1 [1, 4] [%] | % Phosphatase Activity (compared to DMSO) PRL-2 [2, 4] [%] | % Phosphatase Activity (compared to DMSO) PRL-3 [3, 4] [%] | also measured
1 | NC(=O)C1CCCc2c1[nH]c1ccc(Cl)cc21 (stereo not drawn) [EX 527 (Selisistat)] | 99 | 106 | 84 | –
2 | Clc1ccc(COC(Cn2ccnc2)c2ccc(Cl)cc2Cl)cc1 (stereo not drawn) [Econazole nitrate] | 107 | 103 | 93 | –
3 | CC1=NN(c2ccccc2)C(=O)C1 [Edaravone] | 90 | 82 | 72 | –
4 | CN1CCc2nc(C(=O)N[C@@H]3C[C@@H](C(=O)N(C)C)CC[C@@H]3NC(=O)C(=O)Nc3ccc(Cl)cn3)sc2C1 [Edoxaban] | 110 | 99 | 106 | –
5 | O=C1Nc2ccc(Cl)cc2[C@@](C#CC2CC2)(C(F)(F)F)O1 [Efavirenz] | 87 | 72 | 97 | –
6 | Cl.NCCCC(N)(C(=O)O)C(F)F.O (stereo not drawn) [Eflornithine hydrochloride hydrate] | 91 | 84 | 103 | –
7 | COc1cc2c(cc1OC)CN(CCc1ccc(NC(=O)c3cccc4c(=O)c5cccc(OC)c5[nH]c34)cc1)CC2 [Elacridar (GF120918)] | 106 | 104 | 100 | –
8 | CN1CCC[C@@H]1Cc1c[nH]c2ccc(CCS(=O)(=O)c3ccccc3)cc12 [Eletriptan HBr] | 109 | 121 | 92 | –
9 | CCCCCCCC(=O)N[C@H](CN1CCCC1)[C@H](O)c1ccc2c(c1)OCCO2.O=C(O)C(O)C(O)C(=O)O [Eliglustat Tartrate] | 96 | 91 | 96 | –
10 | O=c1oc2c(O)c(O)cc3c(=O)oc4c(O)c(O)cc1c4c23 [Ellagic acid] | 98 | 89 | 68 | –
11 | CC1=NN(c2ccc(C)c(C)c2)C(=O)/C1=N\Nc1cccc(-c2cccc(C(=O)O)c2)c1O [Eltrombopag Olamine] | 56 | 66 | 35 | –
12 | CC1=NN(c2ccc(C)c(C)c2)C(=O)/C1=N\Nc1cccc(-c2cccc(C(=O)O)c2)c1O [Eltromobag Olamine, reference compound] | – | – | – | IC50 ([1]; […] protein): 61 ± 15 µM; IC50 ([2]; […] protein): 166 ± 22 µM; IC50 ([3]; […] protein): 27 ± 4 µM
13 | CC1=NN(c2ccc(C)c(C)c2)C(=O)/C1=N\Nc1cccc(-c2cccc(C(=O)O)c2)c1O [Eltromobag, reference compound] | – | – | – | IC50 ([1]; 2.5 µM protein): 56 ± 10 µM; % Phosphatase Activity (compared to DMSO) PRL-1 [1, 5]: 57%; IC50 ([2]; 2.5 µM protein): > 100 µM; % Phosphatase Activity (compared to DMSO) PRL-2 [2, 5]: 68%; IC50 ([3]; 2.5 µM protein): 26 ± 11 µM; % Phosphatase Activity (compared to DMSO) PRL-3 [3, 5]: 66%
14 | COc1cc2c(cc1Cc1cccc(Cl)c1F)c(=O)c(C(=O)O)cn2[C@H](CO)C(C)C [Elvitegravir (GS-9137, JTK-303)] | 82 | 84 | 81 | –
15 | CCCCCCCCCCCC1=C(O)C(=O)C=C(O)C1=O [Embelin, reference compound] | 40 | 58 | 28 | IC50 ([1]; 2.5 µM protein): 114 ± 16 µM; IC50 ([2]; 2.5 µM protein): 124 ± 60 µM; IC50 ([3]; 2.5 µM protein): 52 ± 9 µM
16 | OC[C@H]1O[C@@H](c2ccc(Cl)c(Cc3ccc(O[C@H]4CCOC4)cc3)c2)[C@H](O)[C@@H](O)[C@@H]1O [Empagliflozin (BI 10773)] | 109 | 93 | 97 | –
17 | C[C@H](NC(=O)C(=O)Nc1ccccc1C(C)(C)C)C(=O)N[C@@H](CC(=O)O)C(=O)COc1c(F)c(F)cc(F)c1F [Emricasan] | 95 | 72 | 95 | –
18 | Nc1nc(=O)n([C@@H]2CS[C@H](CO)O2)cc1F [Emtricitabine] | – | – | – | % Phosphatase Activity (compared to DMSO) PRL-1 [1]: 104%; % Phosphatase Activity (compared to DMSO) PRL-2 [2]: 97%; % Phosphatase Activity (compared to DMSO) PRL-3 [3]: 75%

Row | Compound | % Phosphatase Activity (compared to DMSO) PRL-1 [1, 4] [%] | % Phosphatase Activity (compared to DMSO) PRL-2 [2, 4] [%] | % Phosphatase Activity (compared to DMSO) PRL-3 [3, 4] [%] | also measured
19 | CCOC(=O)[C@H](CCc1ccccc1)N[C@@H](C)C(=O)N1CCC[C@H]1C(=O)O [Enalapril Maleate] | 83 | 92 | 93 | –
20 | C[C@H](N[C@@H](CCc1ccccc1)C(=O)O)C(=O)N1CCC[C@H]1C(=O)O.O.O [Enalaprilat Dihydrate] | 102 | 102 | 78 | –
21 | CCN1CCN(c2cc3c(cc2F)c(=O)c(C(=O)O)cn3C2CC2)CC1 [Enrofloxacin] | 152 | 176 | 118 | –
22 | CCN(CC)C(=O)/C(C#N)=C/c1cc(O)c(O)c([N+](=O)[O-])c1 [Entacapone] | 94 | 87 | 75 | –
23 | C=C1[C@H](CO)[C@@H](O)C[C@@H]1n1cnc2c(=O)[nH]c(N)nc21 [Entecavir Hydrate] | 102 | 92 | 71 | –
24 | Nc1ccccc1NC(=O)c1ccc(CNC(=O)OCc2cccnc2)cc1 [Entinostat (MS-275)] | 91 | 91 | 80 | –
25 | CN1CCN(c2ccc(C(=O)Nc3n[nH]c4ccc(Cc5cc(F)cc(F)c5)cc34)c(NC3CCOCC3)c2)CC1 [Entrectinib (RXDX-101)] | 344 | 282 | 180 | –
26 | CNC(=O)c1ccc(N2C(=S)N(c3ccc(C#N)c(C(F)(F)F)c3)C(=O)C2(C)C)cc1F [Enzalutamide (MDV3100)] | 90 | 89 | 71 | –
27 | Cn1cc(C2=C(c3cn(C4CCN(Cc5ccccn5)CC4)c4ccccc34)C(=O)NC2=O)c2ccccc21 [Enzastaurin (LY317615)] | 82 | 76 | 82 | –
28 | NS(=O)(=O)NCCNc1nonc1/C(=N/O)Nc1ccc(F)c(Br)c1 [Epacadostat (INCB024360)] | 111 | 98 | 95 | –
29 | CC(/C=C1\SC(=S)N(CC(=O)O)C1=O)=C\c1ccccc1 [Epalrestat] | 40 | 17 | 74 | –
30 | NC1=NCC2c3ccccc3Cc3ccccc3N12 (stereo not drawn) [Epinastine HCl] | – | – | – | % Phosphatase Activity (compared to DMSO) PRL-1 [1]: 96%; % Phosphatase Activity (compared to DMSO) PRL-2 [2]: 109%; % Phosphatase Activity (compared to DMSO) PRL-3 [3]: 80%
31 | CNC[C@H](O)c1ccc(O)c(O)c1 [Epinephrine Bitartrate] | – | – | – | % Phosphatase Activity (compared to DMSO) PRL-1 [1]: 116%; % Phosphatase Activity (compared to DMSO) PRL-2 [2]: 90%; % Phosphatase Activity (compared to DMSO) PRL-3 [3]: 82%
32 | CNC[C@H](O)c1ccc(O)c(O)c1 [Epinephrine HCl] | – | – | – | % Phosphatase Activity (compared to DMSO) PRL-1 [1]: 98%; % Phosphatase Activity (compared to DMSO) PRL-2 [2]: 132%; % Phosphatase Activity (compared to DMSO) PRL-3 [3]: 90%
33 | COc1cccc2c1C(=O)c1c(O)c3c(c(O)c1C2=O)C[C@@](O)(C(=O)CO)C[C@@H]3O[C@H]1C[C@H](N)[C@@H](O)[C@H](C)O1 [Epirubicin HCl] | 78 | 90 | 58 | –
34 | COC(=O)[C@@H]1CC2=CC(=O)CC[C@]2(C)[C@@]23O[C@@H]2C[C@@]2(C)[C@@H](CC[C@@]24CCC(=O)O4)[C@H]13 [Eplerenone] | 105 | 112 | 81 | –
35 | C/C(=C\c1csc(C)n1)[C@@H]1C[C@@H]2O[C@]2(C)CCC[C@H](C)[C@H](O)[C@@H](C)C(=O)C(C)(C)[C@@H](O)CC(=O)O1 [Epothilone B (EPO906, Patupilone)] | 98 | 93 | 80 | –
